Key:
[1] = Metabolic stability in mouse plasma assessed as compound remaining at 1 uM after 24 hrs by HPLC-ESI-MS/MS analysis; assay type: ADME, cell-free; conditions: read-out: Stability
[2] = Metabolic stability in mouse liver S9 fractions assessed as compound remaining at 1 uM after 1 hr by HPLC-ESI-MS/MS analysis in presence of NADPH regenerating system; assay type: ADME, subcellular, Liver S9 fraction; conditions: read-out: Stability
[3] = target: T1, Nuclear receptor subfamily 1 group I member 2 (Homo sapiens, UniProt O75469); assay: Activation of human recombinant PXR up to 10 uM by alphascreen method
T1 sequence (O75469 whole entry): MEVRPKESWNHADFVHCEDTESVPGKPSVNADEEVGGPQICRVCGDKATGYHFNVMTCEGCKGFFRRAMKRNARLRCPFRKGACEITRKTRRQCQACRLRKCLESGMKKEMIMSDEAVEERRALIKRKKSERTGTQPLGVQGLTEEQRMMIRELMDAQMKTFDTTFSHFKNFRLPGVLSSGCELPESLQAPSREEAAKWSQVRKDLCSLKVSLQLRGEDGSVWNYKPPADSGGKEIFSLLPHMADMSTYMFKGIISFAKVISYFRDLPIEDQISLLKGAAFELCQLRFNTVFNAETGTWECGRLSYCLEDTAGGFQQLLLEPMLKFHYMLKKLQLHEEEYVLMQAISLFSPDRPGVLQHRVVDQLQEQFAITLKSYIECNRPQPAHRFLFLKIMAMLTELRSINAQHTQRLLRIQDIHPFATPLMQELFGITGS

[4] = target: T2, Ephrin type-B receptor 6 (Homo sapiens) (UniProt O15197); assay: (§1) Displacement of biotinylated ephrin-B1-Fc from EphB6 (unknown origin) preincubated for 1 hr followed by biotinylated-ephrin-B1-Fc addition measured after 4 hrs by ELISA
T2 sequence (whole entry): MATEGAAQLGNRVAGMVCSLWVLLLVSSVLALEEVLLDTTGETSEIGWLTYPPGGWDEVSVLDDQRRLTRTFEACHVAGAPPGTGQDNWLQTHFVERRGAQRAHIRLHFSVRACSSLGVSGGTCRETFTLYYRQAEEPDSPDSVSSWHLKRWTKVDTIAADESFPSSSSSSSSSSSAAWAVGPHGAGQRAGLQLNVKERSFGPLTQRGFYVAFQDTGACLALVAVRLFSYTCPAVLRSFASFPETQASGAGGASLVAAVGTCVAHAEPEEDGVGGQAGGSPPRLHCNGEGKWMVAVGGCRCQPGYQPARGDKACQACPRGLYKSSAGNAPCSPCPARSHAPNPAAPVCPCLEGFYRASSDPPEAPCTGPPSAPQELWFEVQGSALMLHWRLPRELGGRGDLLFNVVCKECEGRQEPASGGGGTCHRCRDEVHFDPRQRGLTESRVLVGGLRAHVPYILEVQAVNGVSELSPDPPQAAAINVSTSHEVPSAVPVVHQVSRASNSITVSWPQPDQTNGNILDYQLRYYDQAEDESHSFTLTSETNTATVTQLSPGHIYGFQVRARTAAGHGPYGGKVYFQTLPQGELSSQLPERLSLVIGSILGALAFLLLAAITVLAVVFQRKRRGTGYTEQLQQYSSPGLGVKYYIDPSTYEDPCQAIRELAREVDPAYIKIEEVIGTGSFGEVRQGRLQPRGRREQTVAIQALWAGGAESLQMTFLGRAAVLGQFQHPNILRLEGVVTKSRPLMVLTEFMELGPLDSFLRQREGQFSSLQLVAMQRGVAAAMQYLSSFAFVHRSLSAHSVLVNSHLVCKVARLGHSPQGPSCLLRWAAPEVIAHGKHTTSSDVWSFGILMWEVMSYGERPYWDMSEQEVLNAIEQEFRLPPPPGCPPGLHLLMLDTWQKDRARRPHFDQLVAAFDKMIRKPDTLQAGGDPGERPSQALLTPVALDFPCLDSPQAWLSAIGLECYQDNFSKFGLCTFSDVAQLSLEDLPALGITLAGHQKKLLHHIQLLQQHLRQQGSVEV

Ephrin type-B receptor 6 = target: T3, Ephrin type-B receptor 6 (Homo sapiens, UniProt O15197); assay: as §1
T3 sequence (O15197 whole entry): T2 sequence (whole entry)

Q: What does the source list for `C[C@H](CCC(=O)N[C@@H](Cc1c[nH]c2ccccc12)C(=O)O)[C@H]1CC[C@H]2[C@@H]3CC=C4C[C@@H](O)CC[C@]4(C)[C@H]3CC[C@]12C`?
A: remaining at 24 h, 1 µM [1]: 95.8%; remaining at 1 h, 1 µM [2]: 70%; Activity [3]: Not Active; inhibition [4]: Dose-dependent effect; IC50 (Ephrin type-B receptor 6): 3.3 µM

— ChEMBL document CHEMBL3734669, “Δ(5)-Cholenoyl-amino acids as selective and orally available antagonists of the Eph-ephrin system” (Eur J Med Chem, 2015)
